Experimental data as given in patent US9708325B2, “Sulfonimidoylpurinone compounds and derivatives for the treatment and prophylaxis of virus infection” (Hoffmann-La Roche Inc., priority 2015, dated 2017).
Values after ≈ are worked out from the molar mass of the structure shown. Where two headings read alike, the source gives them in different places.

Assays:
human TLR7 = human TLR7 (Homo sapiens (Human), UniProt Q9NYK1); assay: HEK-Blue-hTLR7 cells assay (SEAP reporter); format: cell-based; settings: 20 hrs, read-out: HEK-Blue-hTLR7 (EC50 (μM))
In short: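 HEK-Blue cells stably carrying human TLR7 and an NF-κB-driven SEAP reporter, preincubated 24 h, then exposed to serially diluted compound (1% DMSO final) for 20 h at 37 °C. Supernatant SEAP measured with QUANTI-Blue substrate, 2 h at 37 °C, absorbance read at 620–655 nm.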

LYSA solubility = format: physicochemical; settings: 0.05 M phosphate buffer, pH 6.5, aqueous buffer, thermodynamic from solid
Experimental: LYSA solubility assay is used to determine the aqueous solubility of a compound. Samples were prepared in duplicate from 10 mM DMSO stock solution. […] After one night, the solutions were filtered using a microtiter filter plate. Then the filtrate and its 1/10 dilution were analyzed by HPLC-UV.

CYP3A4 = assay: Cytochrome P450 induction screening assay, mRNA induction in human cryopreserved hepatocytes; format: in vitro ADME; settings: 24 hours exposure
Text: Induction of cytochrome P450 enzymes is associated with an increased prevalence of clinical drug-drug interactions. The clinical consequences of induction may be therapeutic failure caused by a decreased systemic exposure of the drug itself or a co-administered therapy, or toxicity as a result of increased bioactivation. Cytochrome P450 (CYP450) induction assay has been used to understand the potential drug-drug interaction liabilities in drug discovery stage. Human cryopreserved hepatocytes (Life Technologies, Carlsbad, USA) were thawed and cultured in collagen I coated 96-well plates with a density of 52,000 cells/well. After attachment, hepatocyte maintenance medium (HMM; Lonza, Switzerland) was changed after cells were pre-cultured overnight. […] Medium change was then performed and cells were exposed for 24 hours to test compounds, positive inducer compounds, or vehicle (0.1% DMSO), respectively. At the end of the compound exposure period, medium was removed and cells lysed using 100 μL/well MagNA Pure LC RNA isolation tissue lysis buffer (Roche Diagnostics AG, Rotkreuz, Switzerland). […] mRNA isolation was performed using the MagNA Pure 96 system (Roche Diagnostics AG, Rotkreuz, Switzerland) and the respective cellular RNA large volume kit (Roche Diagnostics AG, Rotkreuz, Switzerland) from thawed samples diluted 1:1 with PBS. […] The resulting cDNA was diluted with 40 μL of H2O before using for qRT-PCR. qRT-PCR was performed by using the forward and the reverse primer, the corresponding Universal Probe Library (all from Microsynth, Balgach, Switzerland) and the Taqman Fast advanced master mix (Applied Biosystems), on an ABI 7900 machine (Applied Biosystems). qRT-PCR Ct-values for the respective P450s were put into relation to the Ct-value of RN18S1 (microsynth, Balgach, Switzerland) of the same sample. Doing so, a respective Δct-value was calculated. Using the average of all Δct-values for the vehicle control samples, a ΔΔct-value was calculated for each sample (ΔΔct-value(sample)=Δct-value(sample)−average of Δct-value of all vehicle controls). […] The individual fold induction values were then averaged per treatment condition (usually n=3 biological replicates).

human TLR8 = human TLR8 (Homo sapiens (Human), UniProt Q9NR97); assay: HEK-Blue-hTLR8 cells assay and selectivity index; format: cell-based
Experimental: A stable HEK-Blue-hTLR8 cell line was purchased from InvivoGen (Cat.#: HEK-Blue-htlr8, San Diego, Calif., USA). These cells were designed for studying the stimulation of human TLR8 by monitoring the activation of NF-κB. […] Therefore the reporter expression was regulated by the NF-κB promoter upon stimulation of human TLR8 for 20 hrs. The cell culture supernatant SEAP reporter activity was determined using QUANTI-Blue™ kit (Cat.#: rep-qb1, Invivogen, San Diego, Ca, USA) at a wavelength of 640 nm, a detection medium that turns purple or blue in the presence of alkaline phosphatase.
HEK-Blue-hTLR8 cells were incubated at a density of 250,000˜450,000 cells/mL in a volume of 180 μL in a 96-well plate in Dulbecco's Modified Eagle's medium (DMEM) containing 4.5 g/L glucose, 50 U/mL penicillin, […], […], 2 mM L-glutamine, 10% (V/V) heat-inactivated fetal bovine serum for 24 hrs. Then the HEK-Blue-hTLR8 cells were incubated with addition of 20 μL test compound in a serial dilution in the presence of final DMSO at 1% and perform incubation under 37° C. in a CO2 incubator for 20 hrs. Then 20 μL of the supernatant from each well was incubated with 180 μL Quanti-blue substrate solution at 37° C. for 2 hours and the absorbance was read at 620˜655 nm using a spectrophotometer. The signalling pathway that TLR8 activation leads to downstream NF-κB activation has been widely accepted, and therefore similar reporter assay was also widely used for evaluating TLR8 agonist (Tsuneyasu Kaisho and Takashi Tanaka, Trends in Immunology, Volume 29, Issue 7, July 2008, […]; Hiroaki Hemmi et al, Nature Immunology 3, 196-200 (2002)).
The ratio of TLR8 agonism activity compared to TLR7 agonism activity was defined as the selectivity index (EC50 (TLR8) value/EC50(TLR7) value) and calculated accordingly.

[1] = patients with chronic hepatitis B, phase Ib; cited from earlier work
[2] = rat, IV 1 mpk, data from WO2016023511, cited from earlier work
[3] = Metabolic stability in human liver microsomes
Experimental: The human microsomal stability assay is used for early assessment of metabolic stability of a test compound in human liver microsomes.
Human liver microsomes (Cat. NO.: 452117, Corning, USA; Cat. NO.: H2610, Xenotech, USA) were preincubated with test compound for 10 minutes at 37° C. in 100 mM potassium phosphate buffer, pH 7.4. The reactions were initiated by adding NADPH regenerating system. The final incubation mixtures contained 1 μM test compound, 0.5 mg/mL liver microsomal protein, 1 mM MgCL2, 1 mM NADP, 1 unit/mL isocitric dehydrogenase and 6 mM isocitric acid in 100 mM potassium phosphate buffer, pH 7.4. After incubation times of 0, 3, 6, 9, 15 and 30 minutes at 37° C., 300 μL of cold ACN (including internal standard) was added to 100 μL incubation mixture to terminate the reaction. Following precipitation and centrifugation, the amount of compound remaining in the samples were determined by LC-MS/MS. Controls of no NADPH regenerating system at zero and 30 minutes were also prepared and analyzed.

Chain of human TLR7 (Q9NYK1 27-1049): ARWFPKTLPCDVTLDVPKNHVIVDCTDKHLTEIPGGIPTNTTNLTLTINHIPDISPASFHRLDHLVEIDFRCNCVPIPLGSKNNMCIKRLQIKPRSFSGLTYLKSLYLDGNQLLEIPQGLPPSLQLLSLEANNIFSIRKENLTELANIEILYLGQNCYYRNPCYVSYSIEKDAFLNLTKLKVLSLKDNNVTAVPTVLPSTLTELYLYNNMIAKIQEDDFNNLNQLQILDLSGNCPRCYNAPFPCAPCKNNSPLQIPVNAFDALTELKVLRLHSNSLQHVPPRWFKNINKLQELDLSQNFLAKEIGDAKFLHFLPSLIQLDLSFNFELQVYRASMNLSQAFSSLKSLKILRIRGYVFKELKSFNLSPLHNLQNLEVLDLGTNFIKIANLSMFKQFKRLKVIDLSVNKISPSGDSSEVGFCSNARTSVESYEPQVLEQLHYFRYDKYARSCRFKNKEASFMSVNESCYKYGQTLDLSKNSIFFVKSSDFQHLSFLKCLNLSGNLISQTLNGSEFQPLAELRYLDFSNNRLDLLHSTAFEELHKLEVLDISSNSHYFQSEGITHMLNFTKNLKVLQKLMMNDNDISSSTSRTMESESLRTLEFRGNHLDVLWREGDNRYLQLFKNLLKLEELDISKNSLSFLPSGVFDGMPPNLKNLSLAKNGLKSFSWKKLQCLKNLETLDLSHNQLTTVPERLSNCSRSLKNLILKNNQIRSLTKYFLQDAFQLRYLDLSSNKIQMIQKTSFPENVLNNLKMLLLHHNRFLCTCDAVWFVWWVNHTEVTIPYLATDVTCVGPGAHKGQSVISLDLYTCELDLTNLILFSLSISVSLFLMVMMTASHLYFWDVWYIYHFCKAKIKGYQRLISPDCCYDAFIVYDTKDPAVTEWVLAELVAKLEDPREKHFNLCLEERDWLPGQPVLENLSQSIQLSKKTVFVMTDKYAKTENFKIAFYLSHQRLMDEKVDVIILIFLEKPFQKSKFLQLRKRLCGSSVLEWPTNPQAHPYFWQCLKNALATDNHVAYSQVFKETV
Chain of human TLR8 (Q9NR97 27-1041): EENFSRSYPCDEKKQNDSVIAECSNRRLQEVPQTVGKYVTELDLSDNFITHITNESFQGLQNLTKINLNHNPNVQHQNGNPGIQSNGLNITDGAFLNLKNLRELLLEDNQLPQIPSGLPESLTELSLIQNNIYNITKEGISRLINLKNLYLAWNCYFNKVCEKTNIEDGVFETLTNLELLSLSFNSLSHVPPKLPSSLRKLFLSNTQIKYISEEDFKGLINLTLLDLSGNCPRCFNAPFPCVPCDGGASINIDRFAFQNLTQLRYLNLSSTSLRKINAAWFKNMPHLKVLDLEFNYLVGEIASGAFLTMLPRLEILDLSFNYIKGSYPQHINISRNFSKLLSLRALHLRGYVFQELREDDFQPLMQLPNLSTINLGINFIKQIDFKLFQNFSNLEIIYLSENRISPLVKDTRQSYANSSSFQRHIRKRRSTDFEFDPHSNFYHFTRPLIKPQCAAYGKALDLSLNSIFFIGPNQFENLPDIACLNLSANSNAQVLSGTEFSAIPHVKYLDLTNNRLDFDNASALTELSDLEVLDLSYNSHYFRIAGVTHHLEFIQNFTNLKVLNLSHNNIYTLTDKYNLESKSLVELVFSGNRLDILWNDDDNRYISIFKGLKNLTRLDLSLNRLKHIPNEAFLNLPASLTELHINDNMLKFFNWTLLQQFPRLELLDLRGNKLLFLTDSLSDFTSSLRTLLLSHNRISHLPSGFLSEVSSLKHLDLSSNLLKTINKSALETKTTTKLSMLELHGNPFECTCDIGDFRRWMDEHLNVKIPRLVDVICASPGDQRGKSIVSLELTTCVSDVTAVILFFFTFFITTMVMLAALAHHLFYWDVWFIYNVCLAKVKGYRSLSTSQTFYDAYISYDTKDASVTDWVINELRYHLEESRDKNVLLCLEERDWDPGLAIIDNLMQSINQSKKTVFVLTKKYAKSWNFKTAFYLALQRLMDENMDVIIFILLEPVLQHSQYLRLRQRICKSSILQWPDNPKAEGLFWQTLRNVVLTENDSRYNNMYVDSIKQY

Compound	EC50 (human TLR7) [µM]	solubility thermodynamic (LYSA solubility) [mg/mL]	Relative induction of Positive control (10 μM Rifampicin) (%) (CYP3A4)	EC50 (human TLR8) [µM]	Selective index (human TLR8; EC50(TLR8) value/EC50(TLR7) value)	ISG15 mRNA induction [1]	Safety and tolerability [1]	Mean plasma concentration ([2]; 0.083 h) [µM]	Mean plasma concentration ([2]; 0.25 h) [µM]	Mean plasma concentration ([2]; 0.5 h) [µM]	Mean plasma concentration ([2]; 1 h) [µM]	Mean plasma concentration ([2]; 2 h) [µM]	Mean plasma concentration ([2]; 4 h) [µM]	Mean plasma concentration ([2]; 8 h) [µM]	CO [2] [nM]	Human Liver Microsome Clearance ([3]; 1 μM test compound, 0.5 mg/mL microsomal protein, 6.15 mL/min/kg is the limitation of assay sensitivity) [L/h/kg]	Human liver microsome clearance category ([3]; categorized low/medium/high)
CCCS(=N)(=O)c1nc(N)c2[nH]c(=O)n(Cc3ccc(F)cc3)c2n1 (stereo not drawn) [Example 24, 6-Amino-9-[(4-fluorophenyl)methyl]-2-(propylsulfonimidoyl)-7H-purin-8-one]	0.037	0.012 (≈ 32.9 µM)	−0.72														
CCCCOc1nc(N)c2c(n1)N(Cc1cccc(CN3CCCC3)c1)CC(=O)N2 [GS-9620]	0.8			11.6	14	dose-dependent ISG15 mRNA induction	safe, well tolerated	0.17	0.102	0.0654	0.0481	0.0216	0.013	0.00417	220	1.07	high (high (16.2-23.2 mL/min/kg))
